From US7414041B2 (Trustees Of Tufts College, priority 1991, dated 2008)
Like-named read-outs stand apart in the source and are kept apart here.

Columns and labels:
S. aureus 450 = assay: MIC of tetracycline susceptible strains, C5 esters; format: cell-based; conditions: S. aureus 450, alone
S. aureus 4250 (Tet K) = assay: MIC/MLC chart, analog with and without doxycycline; format: cell-based
[1] = target: T1, TET proteins responsible for tetracycline efflux (Class B tetracycline resistance determinant, strain D1-209) (Escherichia coli, UniProt P02980); assay: biochemical; set-up: species or system E. coli; conditions: uptake at 2.5 minutes, about 4 μM 3H-tetracycline; read-out: IC50
T1 construct: Everted vesicles, to which the TET proteins responsible for tetracycline efflux are attached; endogenous in cells; host or cells: E. coli strain D1-209 (everted membrane vesicles)
T1 sequence (P02980 whole entry): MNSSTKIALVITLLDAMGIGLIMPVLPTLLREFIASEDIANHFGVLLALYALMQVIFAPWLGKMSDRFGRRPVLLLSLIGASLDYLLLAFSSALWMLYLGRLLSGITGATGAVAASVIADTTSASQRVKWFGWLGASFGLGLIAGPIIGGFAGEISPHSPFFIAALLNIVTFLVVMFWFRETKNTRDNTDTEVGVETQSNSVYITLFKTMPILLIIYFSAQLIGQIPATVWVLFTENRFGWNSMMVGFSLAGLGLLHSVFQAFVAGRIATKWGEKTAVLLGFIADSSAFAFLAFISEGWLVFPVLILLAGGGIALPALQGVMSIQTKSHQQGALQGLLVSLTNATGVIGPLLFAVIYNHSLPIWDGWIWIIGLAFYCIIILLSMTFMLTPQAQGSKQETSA

E. faecalis ATCC 9790 = assay: MIC of tetracycline susceptible strains, C5 esters; format: cell-based; conditions: E. faecalis ATCC 9790, alone
E. faecalis 158 (Tet L) = assay: MIC/MLC chart, analog with and without doxycycline; format: cell-based
E. coli ML308 = assay: MIC of tetracycline susceptible strains, C5 esters; format: cell-based; conditions: E. coli ML308, alone
E. faecalis 211 (Tet M) = assay: MIC/MLC chart, analog with and without doxycycline; format: cell-based;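 further: broth checkerboard of two-fold drug dilutions, alone and mixed with doxycycline, bacteria near 5×10^5 cells/ml, 18 h incubation at 37 °C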
E. coli D1-299 (Tet A) = format: cell-based;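 further: E. coli at roughly 5×10^5 cells/ml in L broth, analog and doxycycline alone or mixed in two-fold dilutions from 50 to under 1 µg/ml, 18 h at 37 °C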

Substance: 13-propylthio-5-proprionate-6-deoxy-tetracycline [Cmpd 8]
- MIC (S. aureus 450): .3 µg/mL
- growth / no growth (MIC) / killing (MLC) symbol (S. aureus 4250 (Tet K); analog .195 + doxy 1.56 μg/ml): +
- growth / no growth (MIC) / killing (MLC) symbol (S. aureus 4250 (Tet K); analog .195 + doxy 3.12 μg/ml): ◯
- growth / no growth (MIC) / killing (MLC) symbol (S. aureus 4250 (Tet K); analog alone .195 μg/ml): +
- IC50 [1]: 1400 nM
- MIC (E. faecalis ATCC 9790): 2.5 µg/mL
- growth / no growth (MIC) / killing (MLC) symbol (E. faecalis 158 (Tet L); analog .195 + doxy 1.56 μg/ml): +
- growth / no growth (MIC) / killing (MLC) symbol (E. faecalis 158 (Tet L); analog .195 + doxy 3.12 μg/ml): +
- growth / no growth (MIC) / killing (MLC) symbol (E. faecalis 158 (Tet L); analog .39 + doxy 1.56 μg/ml): ◯
- growth / no growth (MIC) / killing (MLC) symbol (E. faecalis 158 (Tet L); analog .39 + doxy 3.12 μg/ml): ◯
- growth / no growth (MIC) / killing (MLC) symbol (E. faecalis 158 (Tet L); analog alone .195 μg/ml): +
- growth / no growth (MIC) / killing (MLC) symbol (E. faecalis 158 (Tet L); analog alone .39 μg/ml): +
- growth / no growth (MIC) / killing (MLC) symbol (E. faecalis 158 (Tet L); analog alone .78 μg/ml): +
- MIC (E. coli ML308): 20 µg/mL
- growth / no growth (MIC) / killing (MLC) symbol (E. faecalis 211 (Tet M); analog 1.56 + doxy 1.55 μg/ml): +
- growth / no growth (MIC) / killing (MLC) symbol (E. faecalis 211 (Tet M); analog 1.56 + doxy 3.1 μg/ml): +
- growth / no growth (MIC) / killing (MLC) symbol (E. faecalis 211 (Tet M); analog 1.56 + doxy 6.2 μg/ml): +
- growth / no growth (MIC) / killing (MLC) symbol (E. faecalis 211 (Tet M); analog 3.12 + doxy 1.53 μg/ml): ◯
- growth / no growth (MIC) / killing (MLC) symbol (E. faecalis 211 (Tet M); analog 3.12 + doxy 3.05 μg/ml): ◯
- growth / no growth (MIC) / killing (MLC) symbol (E. faecalis 211 (Tet M); analog .195 + doxy 1.56 μg/ml): +
- growth / no growth (MIC) / killing (MLC) symbol (E. faecalis 211 (Tet M); analog .195 + doxy 3.12 μg/ml): +
- growth / no growth (MIC) / killing (MLC) symbol (E. faecalis 211 (Tet M); analog .195 + doxy 6.25 μg/ml): +
- growth / no growth (MIC) / killing (MLC) symbol (E. faecalis 211 (Tet M); analog .195 + doxy 12.5 μg/ml): +
- growth / no growth (MIC) / killing (MLC) symbol (E. faecalis 211 (Tet M); analog .39 + doxy 1.56 μg/ml): +
- growth / no growth (MIC) / killing (MLC) symbol (E. faecalis 211 (Tet M); analog .39 + doxy 3.12 μg/ml): +
- growth / no growth (MIC) / killing (MLC) symbol (E. faecalis 211 (Tet M); analog .39 + doxy 6.25 μg/ml): +
- growth / no growth (MIC) / killing (MLC) symbol (E. faecalis 211 (Tet M); analog .39 + doxy 12.5 μg/ml): +
- growth / no growth (MIC) / killing (MLC) symbol (E. faecalis 211 (Tet M); analog .78 + doxy 1.56 μg/ml): +
- growth / no growth (MIC) / killing (MLC) symbol (E. faecalis 211 (Tet M); analog .78 + doxy 3.12 μg/ml): +
- growth / no growth (MIC) / killing (MLC) symbol (E. faecalis 211 (Tet M); analog .78 + doxy 6.23 μg/ml): +
- growth / no growth (MIC) / killing (MLC) symbol (E. faecalis 211 (Tet M); analog alone 1.56 μg/ml): +
- growth / no growth (MIC) / killing (MLC) symbol (E. faecalis 211 (Tet M); analog alone 3.12 μg/ml): ◯
- growth / no growth (MIC) / killing (MLC) symbol (E. faecalis 211 (Tet M); analog alone .195 μg/ml): +
- growth / no growth (MIC) / killing (MLC) symbol (E. faecalis 211 (Tet M); analog alone .39 μg/ml): +
- growth / no growth (MIC) / killing (MLC) symbol (E. faecalis 211 (Tet M); analog alone .78 μg/ml): +
- growth / no growth (MIC) / killing (MLC) symbol (E. coli D1-299 (Tet A); analog 1.56 + doxy 1.55 μg/ml): +
- growth / no growth (MIC) / killing (MLC) symbol (E. coli D1-299 (Tet A); analog 1.56 + doxy 3.1 μg/ml): +
- growth / no growth (MIC) / killing (MLC) symbol (E. coli D1-299 (Tet A); analog 1.56 + doxy 6.2 μg/ml): +
- growth / no growth (MIC) / killing (MLC) symbol (E. coli D1-299 (Tet A); analog 1.56 + doxy 12.3 μg/ml): ◯
- growth / no growth (MIC) / killing (MLC) symbol (E. coli D1-299 (Tet A); analog 3.12 + doxy 1.53 μg/ml): +
- growth / no growth (MIC) / killing (MLC) symbol (E. coli D1-299 (Tet A); analog 3.12 + doxy 3.05 μg/ml): +
- growth / no growth (MIC) / killing (MLC) symbol (E. coli D1-299 (Tet A); analog 3.12 + doxy 6.1 μg/ml): +
- growth / no growth (MIC) / killing (MLC) symbol (E. coli D1-299 (Tet A); analog 6.25 + doxy 5.9 μg/ml): +
- growth / no growth (MIC) / killing (MLC) symbol (E. coli D1-299 (Tet A); analog 6.25 + doxy 3.0. μg/ml): +
- growth / no growth (MIC) / killing (MLC) symbol (E. coli D1-299 (Tet A); analog 6.25 + doxy […]): +
- growth / no growth (MIC) / killing (MLC) symbol (E. coli D1-299 (Tet A); analog 12.5 + doxy 2.8 μg/ml): +
- growth / no growth (MIC) / killing (MLC) symbol (E. coli D1-299 (Tet A); analog 12.5 + doxy 5.5 μg/ml): +
- growth / no growth (MIC) / killing (MLC) symbol (E. coli D1-299 (Tet A); analog 12.5 + doxy […]): +
- growth / no growth (MIC) / killing (MLC) symbol (E. coli D1-299 (Tet A); analog 25 + doxy 2.4 μg/ml): +
- growth / no growth (MIC) / killing (MLC) symbol (E. coli D1-299 (Tet A); analog 25 + doxy 4.7 μg/ml): +
- growth / no growth (MIC) / killing (MLC) symbol (E. coli D1-299 (Tet A); analog 25 + doxy […]): +
- growth / no growth (MIC) / killing (MLC) symbol (E. coli D1-299 (Tet A); analog 50 + doxy 1.56 μg/ml): +
- growth / no growth (MIC) / killing (MLC) symbol (E. coli D1-299 (Tet A); analog 50 + doxy 3.12 μg/ml): +
- growth / no growth (MIC) / killing (MLC) symbol (E. coli D1-299 (Tet A); analog 50 + doxy .78 μg/ml): +
- growth / no growth (MIC) / killing (MLC) symbol (E. coli D1-299 (Tet A); analog .195 + doxy 1.56 μg/ml): +
- growth / no growth (MIC) / killing (MLC) symbol (E. coli D1-299 (Tet A); analog .195 + doxy 3.12 μg/ml): +
- growth / no growth (MIC) / killing (MLC) symbol (E. coli D1-299 (Tet A); analog .195 + doxy 6.25 μg/ml): +
- growth / no growth (MIC) / killing (MLC) symbol (E. coli D1-299 (Tet A); analog .195 + doxy 12.5 μg/ml): +
- growth / no growth (MIC) / killing (MLC) symbol (E. coli D1-299 (Tet A); analog .39 + doxy 1.56 μg/ml): +
- growth / no growth (MIC) / killing (MLC) symbol (E. coli D1-299 (Tet A); analog .39 + doxy 3.12 μg/ml): +
- growth / no growth (MIC) / killing (MLC) symbol (E. coli D1-299 (Tet A); analog .39 + doxy 6.25 μg/ml): +
- growth / no growth (MIC) / killing (MLC) symbol (E. coli D1-299 (Tet A); analog .39 + doxy 12.5 μg/ml): +
- growth / no growth (MIC) / killing (MLC) symbol (E. coli D1-299 (Tet A); analog .78 + doxy 1.56 μg/ml): +
- growth / no growth (MIC) / killing (MLC) symbol (E. coli D1-299 (Tet A); analog .78 + doxy 3.12 μg/ml): +
- growth / no growth (MIC) / killing (MLC) symbol (E. coli D1-299 (Tet A); analog .78 + doxy 6.23 μg/ml): +
- growth / no growth (MIC) / killing (MLC) symbol (E. coli D1-299 (Tet A); analog .78 + doxy 12.4 μg/ml): +
- growth / no growth (MIC) / killing (MLC) symbol (E. coli D1-299 (Tet A); analog alone 1.56 μg/ml): +
- growth / no growth (MIC) / killing (MLC) symbol (E. coli D1-299 (Tet A); analog alone 3.12 μg/ml): +
- growth / no growth (MIC) / killing (MLC) symbol (E. coli D1-299 (Tet A); analog alone 6.25 μg/ml): +
- growth / no growth (MIC) / killing (MLC) symbol (E. coli D1-299 (Tet A); analog alone 12.5 μg/ml): +
- growth / no growth (MIC) / killing (MLC) symbol (E. coli D1-299 (Tet A); analog alone 25.0 μg/ml): +
- growth / no growth (MIC) / killing (MLC) symbol (E. coli D1-299 (Tet A); analog alone 50.00 μg/ml): +
- growth / no growth (MIC) / killing (MLC) symbol (E. coli D1-299 (Tet A); analog alone .195 μg/ml): +
- growth / no growth (MIC) / killing (MLC) symbol (E. coli D1-299 (Tet A); analog alone .39 μg/ml): +
- growth / no growth (MIC) / killing (MLC) symbol (E. coli D1-299 (Tet A); analog alone .78 μg/ml): +
